The source of these data is patent publication US10959984B2, “Methods for treating cancer with RORγ inhibitors” (THE REGENTS OF THE UNIVERSITY OF CALIFORNIA, priority 2015, dated 2021).

Experiment [1] has as its system C4-2B and 22Rv1 cells. Briefly: Colony formation, 14 d. The class given is cell-based, human. The protocol:
(§1) For apoptosis, Terminal deoxynucleotidyl transferase-mediated dUTP nick end labeling (TUNEL) was performed by using in situ cell death detection kit (Roche) as previously described^56. The results are expressed as a percentage of apoptotic cell number/total cell number. Caspase-3/7 activity was measured using a luminescent caspase-Glo 3/7 assay kit (Promega Corporation, Madison, USA) following the manufacturer's instructions. For cell growth, cells were seeded in 6-well plates at 2×10^5 per well and treated as indicated. Total viable cell numbers were counted using a Coulter cell counter. For colony formation, 800 cells were seeded in a well of 6-well plates and cultured for 14 days with the medium changed every 3 days. When the cell clone grew visible, the medium was removed and the cells were fixed with […] formalin for 10 minutes. Then the plates were washed with PBS for two times and the cell colonies were stained with 0.2% crystal violet (in 10% formalin) for 15 minutes. The numbers of cell colonies were counted after washed 5 times by PBS. The above assays were performed in triplicates and the entire experiments were repeated three times.

Experiment [2] has as its system A549 human lung cancer cells xenograft tumors. The experiment can be described thus: A549 lung cancer xenograft tumor growth. The class given is in vivo, mice. To be noted: A549 xenografts, 5 mg/kg/day i.p., six weeks. The protocol:
FIG. 32A: Cell viability, as measured by Cell-Titer GLO, of different lung cancer cells treated with the indicated concentrations of SR2211 for 4 days. FIG. 32B: Cell viability, as measured by Cell-Titer GLO, of different lung cancer cells treated with the indicated concentrations of GSK805 for 4 days. FIG. 32C: Half-maximal inhibitory concentration (IC50) for SR2211 and GSK805 in indicated lung cancer cell lines treated for 4 days. FIG. 32D: Effects of the indicated treatments (SR2211, 5 mg/kg i.p. five times per week; or vehicle) on the growth of lung cancer A549 xenografts (n=6 mice per group). Treatment started when A549 tumors reached approximately 100 mm^3. Mean tumor volume±s.e.m., Mean tumor weight±s.e.m. and representative tumor images are shown. P<0.01.

For a further experiment, the system named is 22Rv1 xenografts. Briefly: 22Rv1 xenograft tumor growth. The class given is in vivo, mice. The following applies: nude mice; SR2211 5 mg/kg i.p., 8k/E11 10 and 20 mg/kg i.p., five times per week (FIG. 3A). As for the experimental part:
(§2) Four-week-old male SCID C.B17 mice (for C4-2B and VCaP) or BALB/c nu/nu athymic mice (for 22Rv11 and PC-3) were purchased from Harlan Inc. For establishing tumors, 2×10^6 cells were suspended in total of 100 μL PBS/Matrigel (1:1) and implanted subcutaneously into the dorsal flank on both sides of the mice. Animal group size of six or more was estimated to have a high statistic power, based on power calculation (http://www.biomath.info/power/) and previous studies involving the same xenograft models^34,68. When the tumor volume was approximately 80 mm^3, the mice were randomized and then treated intraperitoneally (i.p.) with 100 μl of either vehicle or RORγ antagonists SR2211, XY011/8k (in a formulation of 15% Cremophor EL, Calbiochem, 82.5% PBS, and 2.5% DMSO) for five times per week. Tumor growth was monitored by calipers with volume calculated using the equation: (π/6 (length×width2)). Body weight during the course of the study was also monitored. At the end of the studies mice were killed and tumors were dissected and weighed. Additionally, prostate, seminal vesicle, testis, kidney, heart, lung, liver, epididymal fat pad and spleen were harvested and weighed. To assess the effect of combining RORγ antagonists and ENZ on the growth of castrated-resistant VCaP xenografts (CRPC-VCaP), first, SCID C.B17 mice were injected with VCaP cells as above to establish the tumors. Then, mice bearing tumors of approximately 180 mm^3 were surgically castrated. They were then observed for tumor regression. Once tumors grew back to the pre-castration size, mice were randomized and treated with vehicle, 5 mg kg^−1 SR2211, 10 mg kg^+1 ENZ or a combination of 5 mg kg^−1 SR2211 and 10 mg kg^−1 ENZ. ENZ was given by oral gavage as previously described^68 and SR2211 was administered i.p as above. Mice were excluded from the study if bearing no tumor or tumor with size twice larger or smaller than the mean, at the time of randomization.

Experiment [3] has as its system C4-2B, VCaP and 22Rv1 xenograft tumors. The experiment can be described thus: Xenograft tumor growth, three AR-positive tumor models. The class given is in vivo, mice. The following applies: 5 mg/kg, i.p., five times per week; including ENZ-resistant 22Rv1. The protocol: as §2, with “Then, mice bearing tumors of approximately 180 mm^3 were surgically castrated. They were then observed for tumor regression. Once tumors grew back to the pre-castration size, mice were randomized and treated with vehicle, 5 mg kg^−1 SR2211, 10 mg kg^+1 ENZ or a combination of 5 mg kg^−1 SR2211 and 10 mg kg^−1 ENZ. ENZ was given by oral gavage as previously described^68 and SR2211 was administered i.p as above. Mice were excluded from the study if bearing no tumor or tumor with size twice larger or smaller than the mean, at the time of randomization.” left out

For experiment [4], the system named is HER2-positive cells, such as SKBR3 and HCC1954. The experiment can be described thus: CellTiter-GLO viability, HER2-positive breast cancer cells. To be noted: SKBR3 and HCC1954, 4 days. The class given is cell-based, human. The protocol:
(§3) For cell viability, cells were seeded in 96-well plates at 1500-2500 cells per well (optimum density for growth) in a total volume of 100 μl media. Serially diluted compounds in […] of media were added to the cells 12 hours later. After 4 days of incubation, Cell-Titer GLO reagents (Promega) were added and luminescence was measured on GLOMAX microplate luminometer (Promega), according to the manufacturer's instructions. All experimental points were set up as sextuplicate as biological replication and the entire experiments were repeated three times. The data are presented as percentage of viable cells with vehicle treated cells set as 100. The estimated in vitro IC50 values were calculated using GraphPad Prism 6 software.
(§4) Using a CellTiter-GLO assay, the viability of cells of different cancer types was measured after treatment with different concentrations of RORγ small molecule inhibitors for 4 days.

A further experiment has as its system lung cancer cells. The experiment can be described thus: CellTiter-GLO viability, lung cancer cells. The class given is cell-based, human. To be noted: NSCLC cells: KRAS mutant (A427, Calu1, A549, H23, H358), BRAF mutant (H1666), EGFR mutant (HCC827, PC-9), Erlotinib-resistant (A427, H1975); 4 days. The protocol:
as §3, §4

Another experiment concerns LNCaP cells. Briefly: Cell viability (Cell-Titer GLO), 4 days. The following applies: Homo sapiens, 96 h, treated for 4 days, read-out: IC50 (growth inhibition). The class given is cell-based. The protocol: as §3
For experiment [5], the system named is TNBC cells including MDA-MB468, MDA-MB231, BT20, SUM149, and HCC1937. Briefly: CellTiter-GLO viability, triple-negative breast cancer cells. The class given is cell-based. To be noted: Homo sapiens, 96 h, treated for 4 days. As for the experimental part:
as §3, §4
On the technique in general: In ATP-based viability assays light output follows the ATP content of the culture.

The subject of experiment [6] is C4-2B and 22Rv1 cells. The experiment can be described thus: Apoptosis (caspase-3/7 activity, TUNEL). The class given is cell-based, human. The protocol:
as §1

The subject of the next experiment is AR-positive PCa cells. The experiment can be described thus: Prostate cancer cell growth and survival (cell viability / cell growth). The class given is cell-based, human. The protocol: as §3, §1
A further experiment relates to CRPC-VCaP xenografts. Briefly: Castration-resistant VCaP (CRPC-VCaP) xenograft tumor growth. To be noted: castrated mice, SR2211 alone, 5 mg/kg i.p. The class given is in vivo. The protocol:
as §2, with “Then, mice bearing tumors of approximately 180 mm^3 were surgically castrated. They were then observed for tumor regression. Once tumors grew back to the pre-castration size, mice were randomized and treated with vehicle, 5 mg kg^−1 SR2211, 10 mg kg^+1 ENZ or a combination of 5 mg kg^−1 SR2211 and 10 mg kg^−1 ENZ. ENZ was given by oral gavage as previously described^68 and SR2211 was administered i.p as above. Mice were excluded from the study if bearing no tumor or tumor with size twice larger or smaller than the mean, at the time of randomization.” left out

In experiment [7] the test system is ER-positive cells, such as MCF-7 and T47D. Briefly: CellTiter-GLO viability, ER-positive breast cancer cells. The class given is cell-based. To be noted: Homo sapiens, 96 h; ER-positive cells MCF-7 and T47D, treated for 4 days. The protocol:
as §3, §4

The subject of another experiment is AR-negative PCa cells. The experiment can be described thus: Prostate cancer cell growth and survival, AR-negative cells. The class given is cell-based, human. As for the experimental part:
as §3, §1

pIC50: −log10 of the molar value. Where only a bound is given, the exact number is not on record here.

The term pIC50 denotes the negative decadic logarithm of the IC50, by convention in mol/L. In the case of `OC(c1ccc(-c2ccc(CN3CCN(Cc4ccncc4)CC3)cc2)c(F)c1)(C(F)(F)F)C(F)(F)F` [SR2211, 2-Fluoro-4′-[[4-(4-pyridinylmethyl)-1-piperazinyl]methyl]-a,a-bis (trifluoromethyl)-[1,1′-biphenyl]-4-methanol], the colony formation entry with C4-2B and 22Rv1 cells [1] is listed as “poor colony formation”. In [2], the “tumor growth of xenograft lung tumor model” value was “strongly inhibited tumor growth”. In addition, the “growth of xenograft tumors” value in the experiment with 22Rv1 xenografts is “strongly inhibited growth of xenograft tumors”. Also, the tumor growth entry in experiment [3] was “effectively stopped the tumor growth”. Besides, the “inhibition of HER2-positive cells” value in [4] is on record as “relatively strong inhibition”. In addition, the “growth and survival of lung cancer cells” value in the experiment with lung cancer cells was “strongly inhibited the growth and survival of lung cancer cells”. The pIC50 with LNCaP cells was 5.82; in experiment [5], 5.00 to 6.00; in [7] it was less than 5.00. The apoptosis result in the experiment on C4-2B and 22Rv1 cells [6] is reported as “marked apoptosis”. Besides, the “growth inhibition in other AR-positive PCa cell models” value in the experiment on AR-positive PCa cells (22Rv1, VCaP, LNCaP, LAPC4 and PC346C) is given as “strong growth inhibition”. The “inhibition of AR-positive PCa cell growth and survival” value in the experiment with AR-positive PCa cells (different cell line models) was “potent inhibition of AR-positive PCa cell growth and survival”. For the same compound, the CRPC tumor growth result in the experiment on CRPC-VCaP xenografts is recorded as “very potent in inhibition of the CRPC tumor growth”. Also, the “inhibition of cell growth and survival in AR-negative cells” value in the experiment with AR-negative PCa cells is on record as “not in the AR-negative cells”.
